The values that follow come from US10428024B2, “Piperidinyl derivatives” (MERCK PATENT GMBH, priority 2016, dated 2019).

The test system of experiment [1] is PDH-E1alpha (pSer300) in HEK293T cells. The experiment is described as follows: Cellular immunofluorescence assay (Anti-PDH-E1alpha (pSer300)) in HEK293T cells. The note with it: Homo sapiens, HEK-293T, 5 hours incubation, read-out: IC50 (cell data). It counts as cell-based. On the procedure: Cellular Assay for Determination of Compound Activities
Compound activities were determined in a cellular immunofluorescence assay.
Human HEK293T cells were seeded into black 384-well plates with clear bottom and grown overnight.
Next day, test compounds were added to the wells and the plates incubated for 5 hours. Following this, cells were fixed with formaldehyde, permeabilised and blocked. The primary antibody, Anti-PDH-E1alpha (pSer300), AP1064 (Merck Millipore) was added and incubated overnight in the plate wells. Next, cells were washed and the secondary antibody, Alexa Fluor 488, goat anti-rabbit ab (A-11008, Invitrogen) was added together with Hoechst 33258 (H3569, Invitrogen) and incubated for 1 hour in the plate wells. Finally, cells were washed and the plates were measured on the laser scanning cytometer acumen hci (TTpLabtech).
The raw data were normalized against a pharmacological inhibitor control and dose response curves were generated by plotting the percent effect values using the software package Genedata screener (Genedata).

Experiment [2] deals with PDHK2 (Homo sapiens (Human), UniProt Q15119). The experiment is described as follows: Biochemical activity testing of PDHK2: PDC inactivation assay. The settings on record: human rec PDHK2, 5 μM ATP, read-out: IC50 PDHK2 (enzyme assay). The source says: Biochemical Activity Testing of PDHK2: PDC Inactivation Assay
The biochemical activity assay for PDHK2 is based on the inactivation of PDC through phosphorylation by PDHK2. The assay is run in two steps: the enzymatic PDHK2 reaction in which isolated PDC is phosphorylated by PDHK2 with ATP as co-substrate and the PDC activity assay in which pyruvate and NAD are converted to acetyl-CoA and NADH. The PDC activity correlates to the increase in NADH and thereby is detectable directly via the increasing fluorescence signal (Exc 340 nm, Em 450 nm). Inhibition of PDHK2 results in a lower phosphorylation status and thereby a less decrease in activity of PDC and a stronger increase in NADH fluorescence signal.
The PDC inactivation assay is performed in Greiner 384-well microtiter plates and is used for high throughput screen. 4 μl of PDHK2 (human, rec, Carna Bioscience, 10 ng/μl-137 nM final concentration) and PDC (isolated from porcine heart, Sigma-Aldrich, 20 mU/ml final concentration) are incubated in the absence or presence of the test compound (10 dilution concentrations) for 30 min at room temperature in kinase buffer (15 mM potassium phosphate buffer, pH 7.0, 60 mM KCl, 1.5 mM DTT, 2.5 mM MgCl2, 0.0125% (w/v) BSA, 0.125% Pluronic F-68). The kinase reaction is started by the addition of 4 μl ATP substrate solution (fc 5 μM in kinase buffer). After 30 min incubation at 37° C. 40 μl of PDC reaction solution (100 mM Tris/HCl, pH 7.8, 0.5 mM EDTA, 1 mM MgCl2, 50 mM NaF, 0.25 mM Coenzyme A, 5 mM pyruvate, 1 mM NAD, 5 mM DTT, 1 mM thiamine pyrophosphate) is added. The first fluorescence measurement is performed on a Perkin Elmer Envision (Exc 340 nm, Em 450 nm). The reaction is incubated for 45 min at room temperature. Afterwards a second fluorescence measurement is performed and the PDC activity is calculated by the difference between both measurements. As full value for the PDHK2 assay the inhibitor-free PDHK2 reaction is used. The pharmacological zero value used is DCA (Sigma-Aldrich) in a final concentration of 3 mM. The inhibitory values (IC50) were determined using either the program Symyx Assay Explorer® or Condosseo® from GeneData.

Experiment [3] has as its target human PDHK2 (12-407) (Homo sapiens (Human), UniProt Q15119). The experiment can be described thus: Isothermal titration calorimetry (ITC). The settings on record: 30° C., pH 7.5; read-out: Binding (ITC) KD. On the procedure:
Isothermal Titration Calorimetry
ITC measurements were performed with a VP-ITC micro calorimeter (Microcal, LLC/GE Healthcare Bio-Sciences AB, Uppsala, Sweden). In general titrations were performed by titrating the protein (50 μM) to the test compound (5 μM) in 12 μl injections. All binding experiments were carried out at 30° C. In general the test compounds were diluted form DMSO stock solutions into the measurement buffer with a maximum final concentration of 1% DMSO. The measurement buffer was 20 mM HEPES, 135 mM KCl, 1 mM TCEP, 2 mM MgCl2, 15 mM NaH2PO4, pH 7.5. The human PDHK2 (12-407) was produced in E. coli as his-tagged protein and purified by affinity chromatography. The tag was removed by side specific proteolysis. Before titration the protein buffer was changed to the measurement buffer containing the same DMSO concentration as the test compound dilution. ITC data analysis was performed using Origin 7 calorimetry software from the same supplier. For most measurements a binding model of one binding site was assumed. According to the applied mathematical model it is possible to calculate the binding constant (KA), the observed binding enthalpy (ΔH^obs) as well as the stoichiometry (N) of the formed complex. Preceding analysis the raw data was corrected for the heats of dilution by extrapolating from the saturation value from the end of titration. In order to allow for direct comparison between the respective experimental series and protein preparations the protein concentration was corrected by referencing titrations to a well behaved standard inhibitor. The apparent stoichiometry values defined the fraction of binding competent protein and compensated for relative errors in protein concentration measurements. This corrected protein concentration was used to set up ITC experiment series with test compounds. Any deviations from ideal 1:1 stoichiometry observed here were attributed to errors in compound concentration. This nominal compound concentration was corrected as well to achieve 1:1 stoichiometry in the fit.

Molecules are shown by their SMILES.

`CN(C(=O)c1ccc(Cl)cc1)C1CCN(C(=O)[C@@](C)(O)C(F)(F)F)CC1` [Compound A16, 4-Chloro-N-methyl-N-{1-[(2R)-3,3,3-trifluoro-2-hydroxy-2-methylpropanoyl]piperidin-4-yl}benzamide]: the IC50 in experiment [1] was found to be 1500 nM; in experiment [2] it was 390 nM. Besides, in experiment [3], the Kd came out at 154 nM.

In the case of `Cc1ccc(C(=O)N(C)C2CCN(C(=O)[C@@](C)(O)C(F)(F)F)CC2)cc1` [Compound A17, N,4-Dimethyl-N-{1-[(2R)-3,3,3-trifluoro-2-hydroxy-2-methylpropanoyl]piperidin-4-yl}benzamide], the IC50 in experiment [1] came out at 1000 nM; in experiment [2], 250 nM. Moreover, the Kd in experiment [3] turned out to be 110 nM.

For the compound `Cc1ccc(C(=O)N(C)C2CCN(C(=O)[C@@](C)(O)C(F)(F)F)CC2)c(F)c1` [Compound A18, 2-Fluoro-4,N-dimethyl-N-{1-[(R)-3,3,3-trifluoro-2-hydroxy-2-methyl-propionyl]-piperidin-4-yl}-benzamide], the results for the IC50 in experiment [1] and in experiment [2] were 700 nM and 260 nM, respectively. Further, in experiment [3], the Kd is 69 nM.

Take `CN(C(=O)c1ccc(C(F)(F)F)cc1Cl)C1CCN(C(=O)[C@@](C)(O)C(F)(F)F)CC1` [Compound A19, 2-Chloro-N-methyl-N-{1-[(2R)-3,3,3-trifluoro-2-hydroxy-2-methylpropanoyl]piperidin-4-yl}-4-(trifluoromethyl)benzamide]: the IC50 was 520 nM in experiment [1] and 550 nM in experiment [2]. In experiment [3], the Kd amounted to 53 nM.

As for `C[C@@H]1CN(C(=O)[C@@](C)(O)C(F)(F)F)CC[C@@H]1N(C)C(=O)c1ccc(Cl)cc1` [Compound A21, 4-Chloro-N-methyl-N-[(3R,4S)-3-methyl-1-[(2R)-3,3,3-trifluoro-2-hydroxy-2-methylpropanoyl]piperidin-4-yl]benzamide], the IC50 in experiment [1] was determined as 160 nM; in experiment [2], 260 nM. In experiment [3], the Kd was determined as 57 nM.

Take `Cc1ccc(C(=O)N(C)[C@H]2CCN(C(=O)[C@@](C)(O)C(F)(F)F)C[C@H]2C)cc1` [Compound A24, N,4-Dimethyl-N-[(3R,4S)-3-methyl-1-[(2R)-3,3,3-trifluoro-2-hydroxy-2-methylpropanoyl]piperidin-4-yl]benzamide]: the values for the IC50 in experiment [1] and in experiment [2] were 290 nM and 130 nM, respectively. In experiment [3], the Kd was 16 nM.

Regarding `Cc1ccc(C(=O)N(C)[C@H]2CCN(C(=O)[C@@](C)(O)C(F)(F)F)C[C@H]2C)c(F)c1` [Compound A27, 2-Fluoro-N,4-dimethyl-N-[(3R,4S)-3-methyl-1-[(2R)-3,3,3-trifluoro-2-hydroxy-2-methylpropanoyl]piperidin-4-yl]benzamide], the IC50 in experiment [1] was 9.3 nM; in experiment [2], 300 nM. The Kd in experiment [3] was determined as 13 nM.

For `C[C@@H]1CN(C(=O)[C@@](C)(O)C(F)(F)F)CC[C@@H]1N(C)C(=O)c1ccc(F)cc1` [Compound A29, 4-Fluoro-N-methyl-N-[(3R,4S)-3-methyl-1-[(2R)-3,3,3-trifluoro-2-hydroxy-2-methylpropanoyl]piperidin-4-yl]benzamide], the values for the IC50 in experiment [1] and in experiment [2] were 290 nM and 250 nM, respectively. Moreover, the Kd in experiment [3] was 38 nM.

`C[C@@H]1CN(C(=O)[C@@](C)(O)C(F)(F)F)CC[C@@H]1N(C)C(=O)c1ccccc1` [Compound A32, N-Methyl-N-[(3R,4S)-3-methyl-1-[(2R)-3,3,3-trifluoro-2-hydroxy-2-methylpropanoyl]piperidin-4-yl]benzamide]: the results for the IC50 in experiment [1] and in experiment [2] were 140 nM and 710 nM, respectively. Besides, the Kd in experiment [3] stood at 46 nM.

`COc1ccc(C(=O)N(C)[C@H]2CCN(C(=O)[C@@](C)(O)C(F)(F)F)C[C@H]2C)cc1` [Compound A35, 4-Methoxy-N-methyl-N-[(3R,4S)-3-methyl-1-[(2R)-3,3,3-trifluoro-2-hydroxy-2-methylpropanoyl]piperidin-4-yl]benzamide]: the IC50 in experiment [1] was 33 nM; in experiment [2] it was 310 nM. Further, in experiment [3], the Kd was determined as 37 nM.

Take `C[C@@H]1CN(C(=O)[C@@](C)(O)C(F)(F)F)CC[C@@H]1N(C)C(=O)c1ccc(F)cc1F` [Compound A38, 2,4-Difluoro-N-methyl-N-[(3R,4S)-3-methyl-1-[(2R)-3,3,3-trifluoro-2-hydroxy-2-methylpropanoyl]piperidin-4-yl]benzamide]: the figures for the IC50 in experiment [1] and in experiment [2] were 110 nM and 180 nM, respectively. Further, in experiment [3], the Kd is 19 nM.

As for `C[C@@H]1CN(C(=O)[C@@](C)(O)C(F)(F)F)CC[C@@H]1N(C)C(=O)c1ncc(F)cc1F` [Compound A41, 3,5-Difluoro-N-methyl-N-[(3R,4S)-3-methyl-1-[(2R)-3,3,3-trifluoro-2-hydroxy-2-methylpropanoyl]piperidin-4-yl]pyridine-2-carboxamide], the IC50 in experiment [1] turned out to be 180 nM; in experiment [2], 240 nM. Further, the Kd in experiment [3] came out at 66 nM.

With `C[C@@H]1CN(C(=O)[C@@](C)(O)C(F)(F)F)CC[C@@H]1N(C)C(=O)c1ccc(C#N)cc1` [Compound A44, 4-Cyano-N-methyl-N-[(3R,4S)-3-methyl-1-[(2R)-3,3,3-trifluoro-2-hydroxy-2-methylpropanoyl]piperidin-4-yl]benzamide], the IC50 in experiment [1] was 350 nM; in experiment [2], 300 nM. Moreover, the Kd in experiment [3] was found to be 53 nM.

For `C[C@@H]1CN(C(=O)[C@@](C)(O)C(F)(F)F)CC[C@@H]1N(C)C(=O)c1ccc(C(F)(F)F)cc1F` [Compound A47, 2-Fluoro-N-methyl-N-[(3R,4S)-3-methyl-1-[(2R)-3,3,3-trifluoro-2-hydroxy-2-methylpropanoyl]piperidin-4-yl]-4-(trifluoromethyl)benzamide], the IC50 stood at 190 nM in experiment [1] and 230 nM in experiment [2]. For the same compound, the Kd in experiment [3] came out at 35 nM.

On to `C[C@@H]1CN(C(=O)[C@@](C)(O)C(F)(F)F)CC[C@@H]1N(C)C(=O)c1ccc(F)cc1Cl` [Compound A50, 2-Chloro-4-fluoro-N-methyl-N-[(3R,4S)-3-methyl-1-[(2R)-3,3,3-trifluoro-2-hydroxy-2-methylpropanoyl]piperidin-4-yl]benzamide], for which the results for the IC50 in experiment [1] and in experiment [2] were 61 nM and 150 nM, respectively. In addition, the Kd in experiment [3] was found to be 13 nM.

Turning to `C[C@@H]1CN(C(=O)[C@@](C)(O)C(F)(F)F)CC[C@@H]1N(C)C(=O)c1ccc(F)cn1` [Compound A53, 5-Fluoro-N-methyl-N-[(3R,4S)-3-methyl-1-[(2R)-3,3,3-trifluoro-2-hydroxy-2-methylpropanoyl]piperidin-4-yl]pyridine-2-carboxamide], the results for the IC50 in experiment [1] and in experiment [2] were 340 nM and 410 nM, respectively. The Kd in experiment [3] was found to be 51 nM.
